Test results: patent US6875760B2 (Novo Nordisk A/S, priority 1999, dated 2005)

biological target: T1, human glucagon receptor (Homo sapiens, UniProt P47871); experiment: Glucagon Binding Assay (III); settings: BHK cell membranes, WGA SPA beads, 125I-glucagon; read-out: Glu Bd Assay (III) IC50
T1 construct: expressed in transfected cells; host or cells: BHK (baby hamster kidney) cells
How it was run: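 Non-specific binding was set with 500 nM glucagon in this SPA-type binding assay using WGA beads. The receptor source was a membrane preparation, kept on ice or at 4 °C, from BHK cells transfected with the human receptor. Scintillation counts were taken after 4 hours of shaking and 8–48 hours of settling.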

T1 sequence (P47871 26-477): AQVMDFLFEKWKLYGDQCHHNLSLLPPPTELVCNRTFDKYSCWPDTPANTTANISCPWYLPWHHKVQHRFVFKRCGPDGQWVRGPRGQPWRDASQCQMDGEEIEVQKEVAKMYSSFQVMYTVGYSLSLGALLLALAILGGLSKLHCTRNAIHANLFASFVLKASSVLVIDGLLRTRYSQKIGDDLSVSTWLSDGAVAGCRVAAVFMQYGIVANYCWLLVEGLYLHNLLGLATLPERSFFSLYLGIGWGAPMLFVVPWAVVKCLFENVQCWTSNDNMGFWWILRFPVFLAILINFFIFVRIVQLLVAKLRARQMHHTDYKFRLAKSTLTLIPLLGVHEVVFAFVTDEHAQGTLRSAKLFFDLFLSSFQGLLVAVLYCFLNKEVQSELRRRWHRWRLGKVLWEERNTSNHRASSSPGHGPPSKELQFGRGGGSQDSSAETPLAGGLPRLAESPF

Structure (SMILES) | IC50 [nM]
CCCCOC(=O)c1ccc(NC(=O)N(Cc2ccc(C(=O)NCCC(=O)O)cc2)CC(C)c2ccccc2)cc1 (stereo not drawn) [Example 49, 4-[3-[4-(2-Carboxyethylcarbamoyl)benzyl]-3-(2-phenylpropyl)ureido]benzoic acid butyl ester] | 1320
O=C(Nc1nn[nH]n1)c1ccc(CN(C(=O)Nc2cccc(OC(F)(F)F)c2)c2ccc(C3=CCCCC3)cc2)cc1 [Example 352, 4-[1-(4-Cyclohex-1-enylphenyl)-3-(3-trifluoromethoxyphenyl)ureidomethyl]-N-(2H-tetrazol-5-yl)benzamide] | 21
CCCCC(CC)CN(Cc1ccc(C(=O)NCCC(=O)O)cc1)C(=O)Nc1cccc(C#N)c1 (stereo not drawn) [Example 20, 3-{4-[3-(3-Cyanophenyl)-1-(2-ethylhexyl)ureidomethyl]benzoylamino}propionic acid] | 2370
CCCCOc1ccc(NC(=O)N(Cc2ccc(C(=O)NCCC(=O)O)cc2)C2CCC(C(C)(C)C)CC2)cc1 (stereo not drawn) [Example 69, 3-{4-[3-(4-Butoxyphenyl)-1-(4-tert-butyl-cyclohexyl)ureidomethyl]benzoylamino}propionic acid] | 90
CCC(C)(C)C1CCC(N(Cc2ccc(C(=O)NCCC(=O)O)cc2)NC(=O)c2ccc(OC(F)(F)F)cc2)CC1 (stereo not drawn) [Example 423, 3-{4-[N-[4-(1,1-Dimethylpropyl)cyclohexyl]-N′-(4-trifluoromethoxybenzoyl)hydrazinomethyl]benzoylamino}propionic acid] | 37
O=C(O)CCNC(=O)c1ccc(CN(C(=O)Nc2ccc(OC(F)(F)F)cc2)C2CCN(C(=O)C3CC3)CC2)cc1 [Example 381, 3-{4-[1-(1-Cyclopropanecarbonylpiperidin-4-yl)-3-(4-trifluoromethoxyphenyl)ureidomethyl]benzoylamino}propionic acid] | 1980
N#Cc1ccc(NC(=O)N(Cc2ccc(C(=O)Nc3nn[nH]n3)cc2)c2ccc(C3=CCCCC3)cc2)cc1C(F)(F)F [Example 599, 4-[3-(4-Cyano-3-trifluoromethylphenyl)-1-(4-cyclohex-1-enylphenyl)ureidomethyl]-N-(2H-tetrazol-5-yl)benzamide] | 12
CC(C)N1C(=O)c2ccc(NC(=O)N(Cc3ccc(C(=O)Nc4nn[nH]n4)cc3)c3ccc(C(C)(C)C)cc3)cc2C1=O [Example 628, 4-[1-(4-tert-Butyl-phenyl)-3-(N′-isopropylphthalimid-4-yl)ureidomethyl]-N-(2H-tetrazol-5-yl)benzamide] | 35
O=C(Nc1nn[nH]n1)c1ccc(CN(C(=O)Nc2cccc([N+](=O)[O-])c2)c2ccc(OC(F)(F)F)cc2)cc1 [Example 285] | 151
O=C(O)CCNC(=O)c1ccc(CN(C(=O)c2cc3cc(Cl)ccc3o2)c2ccc(C3CCCCC3)cc2)cc1 [Example 561, 3-(4-{[(5-Chlorobenzofuran-2-carbonyl)-(4-cyclohexylphenyl)amino]methyl}benzoylamino)propionic acid] | 372
CCCCOC(=O)c1ccc(NC(=O)N(Cc2ccc(C(=O)NCCC(=O)O)cc2)CC(c2ccccc2)c2ccccc2)cc1 [Example 54, 4-[3-[4-(2-Carboxyethylcarbamoyl)benzyl]-3-(2,2-diphenylethyl)ureido]benzoic acid butyl ester] | 337
CCN(CC)C(=O)C1CCC(N(Cc2ccc(C(=O)NCCC(=O)O)cc2)C(=O)Nc2ccc(OC(F)(F)F)cc2)CC1 (stereo not drawn) [Example 382, 3-{4-[1-(4-Diethylcarbamoylcyclohexyl)-3-(4-trifluoromethoxyphenyl)ureidomethyl]benzoylamino}propionic acid] | 781
O=C(O)CCNC(=O)c1ccc(CN(Cc2ccc(C(F)(F)F)cc2)Cc2ccc(C(F)(F)F)cc2)cc1 [Example 384, 3-(4-{[Bis(4-trifluoromethylbenzyl)amino]methyl}benzoylamino)propionic acid] | 324
O=C(Nc1nn[nH]n1)c1ccc(CN(C(=O)Nc2ccccc2OC(F)(F)F)c2ccc(C3=CCCCC3)cc2)cc1 [Example 351, 4-[1-(4-Cyclohex-1-enylphenyl)-3-(2-trifluoromethoxyphenyl)ureidomethyl]-N-(2H-tetrazol-5-yl)benzamide] | 368
CC(C)(C)c1ccc(N(Cc2ccc(C(=O)NCCC(=O)O)cc2)C(=O)Oc2cc(C(F)(F)F)cc(C(F)(F)F)c2)cc1 [Example 410, 3-(4-{[(3,5-Bis(trifluoromethyl)phenoxycarbonyl)-(4-tert-butylphenyl)amino]methyl}benzoylamino)propionic acid] | 386
O=C(O)CCNC(=O)c1ccc(CN(CC(c2ccccc2)c2ccccc2)C(=O)Cc2cccc(OC(F)(F)F)c2)cc1 [Example 556] | 660
CC(C)N1C(=O)c2ccc(NC(=O)N(Cc3ccc(C(=O)NCCC(=O)O)cc3)c3ccc(C(C)(C)C)cc3)cc2C1=O [Example 630, 3-{4-[1-(4-tert-Butylphenyl)-3-(N′-isopropylphthalimid-4-yl)ureidomethyl]benzoylamino}propionic acid] | 73
O=C(O)CCNC(=O)c1ccc(CN(CC(c2ccccc2)c2ccccc2)C(=O)/C=C/c2c(Cl)cccc2Cl)cc1 [Example 505, 3-(4-{[[3-(2,6-Dichlorophenyl)acryloyl]-(2,2-diphenylethyl)amino]methyl}benzoylamino)propionic acid] | 449

Now from value to compound:

IC50 [nM] | Structure (SMILES)
58 | CC(NC(=O)N(Cc1ccc(C(=O)Nc2nn[nH]n2)cc1)c1ccc(C2CCCCC2)cc1)c1ccc(Cl)cc1 (stereo not drawn) [Example 336, 4-[3-[1-(4-Chlorophenyl)ethyl]-1-(4-cyclohexylphenyl)ureidomethyl]-N-(2H-tetrazol-5-yl)benzamide]
30 | CC(C)(C)c1ccc(N(Cc2ccc(C(=O)Nc3nn[nH]n3)cc2)C(=O)Nc2ccc(Cl)c(C(F)(F)F)c2)cc1 [Example 331, 4-[1-(4-tert-Butylphenyl)-3-(4-chloro-3-trifluoromethylphenyl)ureidomethyl]-N-(2H-tetrazol-5-yl)benzamide]
17 | CC(C)(C)c1cccc(NC(=O)N(Cc2ccc(C(=O)Nc3nn[nH]n3)cc2)c2ccc(C3CCCCC3)cc2)c1 [Example 357, 4-[1-(4-Cyclohexylphenyl)-3-(3-tert-butylphenyl)ureidomethyl]-N-(2H-tetrazol-5-yl)benzamide]
139 | CC(C)(C)C1CCC(N(Cc2ccc(C(=O)NCCC(=O)O)cc2)C(=O)Nc2ccc(SC(F)(F)F)cc2)CC1 (stereo not drawn) [Example 58, 3-{4-[1-(4-tert-Butylcyclohexyl)-3-(4-trifluoromethylsulfanylphenyl)ureidomethyl]benzoylamino}propionic acid]
4200 | CC(C)(C)C1CCC(N(Cc2ccc(C(=O)N(CCC(=O)O)CC3CC3)cc2)C(=O)Nc2ccc(OC(F)(F)F)cc2)CC1 (stereo not drawn) [Example 90, 3-({4-[1-(4-tert-Butylcyclohexyl)-3-(4-trifluoromethoxyphenyl)ureidomethyl]benzoyl}cyclopropylmethyl)aminopropionic acid]
566 | CC(O)c1cccc(NC(=O)N(Cc2ccc(C(=O)Nc3nn[nH]n3)cc2)c2ccc(C(C)(C)C)cc2)c1 (stereo not drawn) [Example 309, 4-{1-(4-tert-Butylphenyl)-3-[3-(1-hydroxyethyl)phenyl]ureidomethyl}-N-(2H-tetrazol-5-yl)benzamide]
381 | CC(C(=O)N(Cc1ccc(C(=O)Nc2nn[nH]n2)cc1)C1CCC(C(C)(C)C)CC1)c1ccccc1 (stereo not drawn) [Example 550, 4-{[(4-tert-Butylcyclohexyl)-(2-Phenylpropionyl)amino]methyl}-N-(2H-tetrazol-5-yl)benzamide]
26 | O=C(Nc1nn[nH]n1)c1ccc(CN(C(=O)Nc2cccc([N+](=O)[O-])c2)c2ccc(C3CCCCC3)cc2)cc1 [Example 286, 4-[1-(4-Cyclohexylphenyl)-3-(3-nitrophenyl)ureidomethyl]-N-(2H-tetrazol-5-yl)benzamide]
136 | O=C(Nc1nn[nH]n1)c1ccc(CN(C(=O)Cc2ccc3ccccc3c2)c2ccc(C3CCCCC3)cc2)cc1 [Example 499, 4-{[(4-Cyclohexylphenyl)-(2-naphth-2-ylacetyl)amino]methyl}-N-(2H-tetrazol-5-yl)benzamide]
1980 | O=C(Nc1nn[nH]n1)c1ccc(CN(C(=O)c2cccc([N+](=O)[O-])c2)c2ccc(C3CCCCC3)cc2)cc1 [Example 481, 4-{[(4-Cyclohexylphenyl)-(3-nitrobenzoyl)amino]methyl}-N-(2H-tetrazol-5-yl)benzamide]
2490 | CC(C)(C)C1CCC(N(Cc2ccc(C(=O)Nc3nn[nH]n3)cc2)C(=O)c2cccc3[nH]ccc23)CC1 (stereo not drawn) [Example 516, 4-{[(4-tert-Butylcyclohexyl)-(1H-indol-4-ylcarbonyl)amino]methyl}-N-(2H-tetrazol-5-yl)benzamide]
805 | CC(C)(C)C1CCC(N(Cc2ccc(C(=O)Nc3nn[nH]n3)cc2)C(=O)CCC(=O)c2ccccc2)CC1 (stereo not drawn) [Example 541, 4-({(4-tert-Butylcyclohexyl)-(4-oxo-4-phenylbutyryl)amino]methyl}-N-(2H-tetrazol-5-yl)benzamide]
1100 | O=C(Nc1nn[nH]n1)c1ccc(CN(C(=O)c2cccc(C(F)(F)F)c2)c2ccc(C3CCCCC3)cc2)cc1 [Example 510, 4-{[(4-Cyclohexylphenyl)-(3-trifluoromethylbenzoyl)amino]methyl}-N-(2H-tetrazol-5-yl)benzamide]
133 | CC(C)(C)C1CCC(N(Cc2ccc(C(=O)Nc3nn[nH]n3)cc2)C(=O)/C=C/c2c(Cl)cccc2Cl)CC1 (stereo not drawn) [Example 552, 4-({(4-tert-Butylcyclohexyl)-[3-(2,6-dichlorophenyl)acryloyl]amino}methyl)-N-(2H-tetrazol-5-yl)benzamide]
621 | CC(Oc1cccc(Cl)c1)C(=O)N(Cc1ccc(C(=O)Nc2nn[nH]n2)cc1)c1ccc(C2CCCCC2)cc1 (stereo not drawn) [Example 498, 4-{[[2-(3-Chlorophenoxy)propionyl]-(4-cyclohexylphenyl)amino]methyl}-N-(2H-tetrazol-5-yl)benzamide]
